Test results from patent US10975068B2, “6-aminopyridin-3-yl thiazoles as modulators of RORγT” (Janssen Pharmaceutica NV, priority 2016, dated 2021).
pIC50, pKd: −log10 of the molar value. Read-outs that look alike come from different tables or passages of the source.

Tests used:
[1] = target: human RORγt ligand binding domain (RORγt LBD) (Homo sapiens (Human), UniProt P51449); assay: RORγt ThermoFluor® assay (thermal shift binding); settings: read-out: ThermoFluor® Assay, Kd
How it was run: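 Binding was inferred from thermal stabilisation (ΔTm) of the E. coli-expressed RORγt LBD (0.065 mg/mL), monitored by 1,8-ANS (60 μM) emission at 500 nm during a 1 °C/min ramp. Buffer was Hepes 100 mM pH 7.0 with NaCl, GSH and Tween-20.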

[2] = target: full-length human RORγt (Homo sapiens (Human), UniProt P51449); assay: RORγt (full-length human) reporter assay, Conditions B or C; assay type: cell-based; settings: for RORγt (FL) Reporter Assay B or C, % inhibition (value marked *): marked *: footnote not given; for pIC50: read-out: RORγt (FL) Reporter Assay B or C, IC50; for inhibition at 3 µM: at 3 μM compound concentration, read-out: RORγt (FL) Reporter Assay B or C, % inhibition
Sequence of full-length human RORγt (P51449 other isoform, or with tags, fused parts or gaps): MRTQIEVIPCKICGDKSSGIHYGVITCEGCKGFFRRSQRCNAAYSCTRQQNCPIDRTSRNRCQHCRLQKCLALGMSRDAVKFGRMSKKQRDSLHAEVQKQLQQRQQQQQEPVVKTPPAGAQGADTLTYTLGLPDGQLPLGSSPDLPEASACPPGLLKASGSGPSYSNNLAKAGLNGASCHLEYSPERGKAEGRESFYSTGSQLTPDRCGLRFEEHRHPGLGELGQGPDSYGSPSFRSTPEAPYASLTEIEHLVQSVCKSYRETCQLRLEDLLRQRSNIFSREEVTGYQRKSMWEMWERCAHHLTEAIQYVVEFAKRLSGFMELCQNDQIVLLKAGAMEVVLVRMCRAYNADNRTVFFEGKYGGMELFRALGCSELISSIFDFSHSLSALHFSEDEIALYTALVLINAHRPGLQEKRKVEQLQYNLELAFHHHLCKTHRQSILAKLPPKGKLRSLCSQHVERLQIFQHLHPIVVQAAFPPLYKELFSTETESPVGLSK
How it was run: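 Readout is dual luciferase: firefly (GAL4-driven) normalized to DMSO-only and saturating-reference controls, then to CMV-Renilla. Full-length human RORγt fused to GAL4-DBD was transiently expressed in HEK293T; compound exposure ran overnight (16-20 h) starting 4-6 h after transfection, final FBS 1.3%, DMSO 0.1%.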

Sequence of human RORγt ligand binding domain (RORγt LBD) (P51449 other isoform, or with tags, fused parts or gaps): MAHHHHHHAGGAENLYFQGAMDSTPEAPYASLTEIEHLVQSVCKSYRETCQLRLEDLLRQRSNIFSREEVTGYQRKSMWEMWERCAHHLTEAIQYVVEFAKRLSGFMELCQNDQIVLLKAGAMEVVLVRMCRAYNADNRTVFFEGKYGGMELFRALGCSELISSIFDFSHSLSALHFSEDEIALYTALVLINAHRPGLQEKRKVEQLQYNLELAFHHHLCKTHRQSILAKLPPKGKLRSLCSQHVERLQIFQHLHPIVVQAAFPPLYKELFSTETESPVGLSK

| SMILES | pKd [1] | pIC50 ([2]; Conditions B or C) | inhibition at 3 µM [2] [%] | pIC50 [2] | other results |
| --- | --- | --- | --- | --- | --- |
| CC[C@H](Nc1cc(C(F)F)c(-c2sc(C(=O)NCC(C)(C)O)nc2C(=O)N2C3CCC2CC3)cn1)C(F)(F)F [Example 89, 4-((1s,4s)-7-Azabicyclo[2.2.1]heptane-7-carbonyl)-5-(4-(difluoromethyl)-6-(((S)-1,1,1-trifluorobutan-2-yl)amino)pyridin-3-yl)-N-(2-hydroxy-2-methylpropyl)thiazole-2-carboxamide] | 8.28 |  |  |  | RORγt (FL) Reporter Assay B or C, % inhibition (value marked *) ([2]; Conditions B or C): 100* %; IC50 ([2]; RORγt (FL) Reporter Assay B or C, IC50 (μM), Conditions B or C): 0.024 µM |
| C[C@H]1CCCN1C(=O)c1nc(C(=O)NC2(CO)COC2)sc1-c1cnc(NC(C)(C)C)cc1C(F)(F)F [Example 261, 5-[6-(tert-Butylamino)-4-(trifluoromethyl)-3-pyridyl]-N-[3-(hydroxymethyl)oxetan-3-yl]-4-[(2S)-2-methylpyrrolidine-1-carbonyl]thiazole-2-carboxamide] | 8.59 |  | 104 | 7.64 |  |
| C[C@H](NC(=O)c1nc(C(=O)N2CCC[C@@H]2C)c(-c2cnc(N[C@H](C)C(F)(F)F)cc2C(F)F)s1)C(C)(C)O [Example 304, 5-(4-(Difluoromethyl)-6-(((R)-1,1,1-trifluoropropan-2-yl)amino)pyridin-3-yl)-N—((S)-3-hydroxy-3-methylbutan-2-yl)-4-((S)-2-methylpyrrolidine-1-carbonyl)thiazole-2-carboxamide] | 8.29 |  | 102 | 7.04 |  |
| C[C@H]1CCCN1C(=O)c1nc(C(=O)NCC(C)(C)O)sc1-c1cnc(NCC2(C)CC2)cc1C(F)(F)F [Example 278, N-(2-Hydroxy-2-methyl-propyl)-5-[6-[(1-methylcyclopropyl)methylamino]-4-(trifluoromethyl)-3-pyridyl]-4-[(2S)-2-methylpyrrolidine-1-carbonyl]thiazole-2-carboxamide] | 8.13 |  | 100 | 7.40 |  |
| C[C@@H](CO)NC(=O)c1nc(C(=O)N2CCC[C@@H]2C)c(-c2cnc(NC(C)(C)C)cc2C(F)(F)F)s1 [Example 362, 5-[6-(tert-Butylamino)-4-(trifluoromethyl)-3-pyridyl]-N-[(1S)-2-hydroxy-1-methyl-ethyl]-4-[(2S)-2-methylpyrrolidine-1-carbonyl]thiazole-2-carboxamide] | 8.40 |  | 99 | 7.68 |  |
| C[C@H](NC(=O)c1nc(C(=O)N2CCC[C@@H]2C)c(-c2cnc(N[C@@H](C3CC3)C(F)(F)F)cc2C(F)F)s1)C(C)(C)O [Example 312, 5-(6-(((S)-1-Cyclopropyl-2,2,2-trifluoroethyl)amino)-4-(difluoromethyl)pyridin-3-yl)-N—((S)-3-hydroxy-3-methylbutan-2-yl)-4-((S)-2-methylpyrrolidine-1-carbonyl)thiazole-2-carboxamide] | 8.66 |  | 106 | 7.57 |  |
| CC(C)(O)CNC(=O)c1nc(C(=O)N2CCC(F)CC2)c(-c2cnc(NC3CCCCC3(F)F)cc2C(F)(F)F)s1 (stereo not drawn) [Example 26, 5-(6-((2,2-Difluorocyclohexyl)amino)-4-(trifluoromethyl)pyridin-3-yl)-4-(4-fluoropiperidine-1-carbonyl)-N-(2-hydroxy-2-methylpropyl)thiazole-2-carboxamide] | 8.02 | 7.43 |  |  | inhibition at 6 µM ([2]; read-out: RORγt (FL) Reporter Assay B or C, % inhibition @ 6 μM, Conditions B or C, @ 6 μM): 111% |
| CC[C@H](Nc1cc(C(F)F)c(-c2sc(C(=O)N[C@@H]3COC[C@H]3O)nc2C(=O)N2CCC[C@@H]2C)cn1)C(F)(F)F [Example 220, 5-(4-(Difluoromethyl)-6-(((1S)-1-(trifluoromethyl)propyl)amino)-3-pyridyl)-N-((3R,4S)-4-hydroxytetrahydrofuran-3-yl)-4-((2S)-2-methylpyrrolidine-1-carbonyl)thiazole-2-carboxamide] | 8.21 | 7.89 |  |  | RORγt (FL) Reporter Assay B or C, % inhibition (value marked *****) ([2]; Conditions B or C, marked *****: footnote not shown): 111***** % |

The next compounds have a higher pKd [1] than those just listed; values first:

| pKd [1] | pIC50 ([2]; Conditions B or C) | inhibition at 3 µM [2] [%] | pIC50 [2] | SMILES | other results |
| --- | --- | --- | --- | --- | --- |
| 8.68 |  | 89 | 7.12 | C[C@H](CO)NC(=O)c1nc(C(=O)N2CC(F)(F)C[C@@H]2C)c(-c2cnc(N[C@@H](C)C(F)(F)F)cc2C(F)F)s1 [Example 447, 4-[(2S)-4,4-Difluoro-2-methyl-pyrrolidine-1-carbonyl]-5-[4-(difluoromethyl)-6-[[(1S)-2,2,2-trifluoro-1-methyl-ethyl]amino]-3-pyridyl]-N-[(1R)-2-hydroxy-1-methyl-ethyl]thiazole-2-carboxamide] |  |
| 8.68 |  | 99 | 7.68 | C[C@H]1CCCN1C(=O)c1nc(C(=O)N[C@H]2CC[C@@H](O)C2)sc1-c1cnc(NC(C)(C)C)cc1C(F)(F)F [Example 367, 5-[6-(tert-Buylamino)-4-(trifluoromethyl)-3-pyridyl]-N-[(1S,3R)-3-hydroxycyclopentyl]-4-[(2S)-2-methylpyrrolidine-1-carbonyl]thiazole-2-carboxamide] |  |
| 8.70 |  | 93 | 7.96 | C[C@H]1CC(F)(F)CN1C(=O)c1nc(C(=O)N[C@H]2C[C@H](O)C2)sc1-c1cnc(NC2(C)CCC2)cc1C(F)F [Example 327, 4-((S)-4,4-Difluoro-2-methylpyrrolidine-1-carbonyl)-5-(4-(difluoromethyl)-6-((1-methylcyclobutyl)amino)pyridin-3-yl)-N-((1r,3S)-3-hydroxycyclobutyl)thiazole-2-carboxamide] |  |
| 8.82 | 7.38 |  |  | C[C@H](Nc1cc(C(F)(F)F)c(-c2sc(C(=O)N[C@H](C)C(C)(C)O)nc2C(=O)N2CC(F)(F)C[C@@H]2C)cn1)C1CC1 [Example 203, 5-(6-(((S)-1-Cyclopropylethyl)amino)-4-(trifluoromethyl)pyridine-3-yl)-4-((S)-4,4-difluoro-2-methylpyrrolidine-1-carbonyl)-N—((R)-3-hydroxy-3-methylbutan-2-yl)thiazole-2-carboxamide] | RORγt (FL) Reporter Assay B or C, % inhibition (value marked *) ([2]; Conditions B or C): 97* % |
| 9.01 | 8.18 |  |  | C[C@H]1CC(F)(F)CN1C(=O)c1nc(C(=O)NCC(C)(C)O)sc1-c1cnc(NC(C2CC2)C2CC2)cc1C(F)F [Example 177, (S)-5-(6-((Dicyclopropylmethyl)amino)-4-(difluoromethyl)pyridine-3-yl)-4-(4,4-difluoro-2-methylpyrrolidine-1-carbonyl)-N-(2-hydroxy-2-methylpropyl)thiazole-2-carboxamide] | RORγt (FL) Reporter Assay B or C, % inhibition (value marked *) ([2]; Conditions B or C): 117* % |
| 9.31 | 8.01 |  |  | C[C@H]1CCCCN1C(=O)c1nc(C(=O)NCC(C)(C)O)sc1-c1cnc(NCC(C)(C)C)cc1C(F)F [Example 114, (S)-5-(4-(Difluoromethyl)-6-(neopentylamino)pyridin-3-yl)-N-(2-hydroxy-2-methylpropyl)-4-(2-methylpiperidine-1-carbonyl)thiazole-2-carboxamide] | RORγt (FL) Reporter Assay B or C, % inhibition (value marked *) ([2]; Conditions B or C): 117* % |
| 9.37 | 8.15 |  |  | C[C@H]1CC(F)(F)CN1C(=O)c1nc(C(=O)NCC(C)(C)O)sc1-c1cnc(NCC2(C(F)(F)F)CCC2)cc1C(F)(F)F [Example 118, (S)-4-(4,4-Difluoro-2-methylpyrrolidine-1-carbonyl)-N-(2-hydroxy-2-methylpropyl)-5-(4-(trifluoromethyl)-6-(((1-(trifluoromethyl)cyclobutyl)methyl)amino)pyridin-3-yl)thiazole-2-carboxamide] | RORγt (FL) Reporter Assay B or C, % inhibition (value marked ****) ([2]; Conditions B or C, marked ****: footnote not shown): 109**** % |
| 9.43 |  | 105 | 7.60 | C[C@H]1CCCN1C(=O)c1nc(C(=O)N[C@H]2CC[C@H](O)C2)sc1-c1cnc(NC(C)(C)C)cc1C(F)(F)F [Example 361, 5-[6-(tert-Butylamino)-4-(trifluoromethyl)-3-pyridyl]-N-[(1S,3S)-3-hydroxycyclopentyl]-4-[(2S)-2-methylpyrrolidine-1-carbonyl]thiazole-2-carboxamide] |  |
| 9.59 | 7.96 |  |  | C[C@H]1CC(F)(F)CN1C(=O)c1nc(C(=O)NCC(C)(C)O)sc1-c1cnc(NC(C)(C)C2CC2)cc1C(F)(F)F [Example 107, (S)-5-(6-((2-Cyclopropylpropan-2-yl)amino)-4-(trifluoromethyl)pyridin-3-yl)-4-(4,4-difluoro-2-methylpyrrolidine-1-carbonyl)-N-(2-hydroxy-2-methylpropyl)thiazole-2-carboxamide] | RORγt (FL) Reporter Assay B or C, % inhibition (value marked *) ([2]; Conditions B or C): 111* % |
| 9.60 |  | 107 | 7.80 | C[C@H]1CCCN1C(=O)c1nc(C(=O)NC2CCS(=O)(=O)CC2)sc1-c1cnc(NC(C)(C)C)cc1C(F)(F)F [Example 254, 5-[6-(tert-Butylamino)-4-(trifluoromethyl)-3-pyridyl]-N-(1,1-dioxothian-4-yl)-4-[(2S)-2-methylpyrrolidine-1-carbonyl]thiazole-2-carboxamide] |  |
| 9.74 |  | 103 | 7.30 | CC[C@H](Nc1cc(C(F)F)c(-c2sc(C(=O)N[C@@H]3CCC[C@H]3O)nc2C(=O)N2CC(F)(F)C[C@@H]2C)cn1)C(F)(F)F [Example 425, 4-[(2S)-4,4-Difluoro-2-methyl-pyrrolidine-1-carbonyl]-5-[4-(difluoromethyl)-6-[[(1S)-1-(trifluoromethyl)propyl]amino]-3-pyridyl]-N-[(1R,2R)-2-hydroxycyclopentyl]thiazole-2-carboxamide] |  |
